We go through three compounds from EPA's ToxValDB 9.5 (doi:10.2903/j.efsa.2016.4574).

SMILES strings stand for the structures. ≈ marks a conversion by molar mass, not a printed value.

In one series the test system is Tagia sp. As to conditions: for LC50: acute, duration: 14 days, mortality; for NOEC: chronic/long-term, duration: 56 days, growth.
A further series relates to Oncorhynchus mykiss. As to conditions: acute; duration: 96 hours; mortality.
The next series relates to Hypoaspis aculeifer. As to conditions: chronic/long-term; duration: 14 days; mortality.
For another series, the system named is Folsomia candida. As to conditions: chronic/long-term; duration: 28 days; mortality.
The test system of the next series is Oryctolagus sp. As to conditions: reproduction developmental; body weight.
The next series relates to Colinus virginianus. As to conditions: chronic.
In the next series the test system is Canidae. As to conditions: Dog Other, clinical chemistry.
In a further series the test system is Coturnix japonica. As to conditions: acute; oral; mortality.
Another series relates to Apis mellifera. As to conditions: acute, duration: 48 hours, mortality.
A further series relates to Daphnia magna. As to conditions: chronic/long-term; duration: 21 days.
The next series concerns Lepomis macrochirus. As to conditions: acute; duration: 96 hours; mortality.
The next series has as its system Pimephales promelas. As to conditions: chronic/long-term; duration: 28 days; growth.
For the next series, the system named is Typhlodromus pyri. Description: LR50; higher = less toxic. As to conditions: not reported; no effects.

Turning to `C=CCNC(=O)c1c([Si](C)(C)C)sc(C(=O)O)c1C` [Silthiofam allyl acid], the LC50 with Tagia sp. is over 466 mg/kg; with Oncorhynchus mykiss it was over 113 µg/mL. The NOEC with Tagia sp., in the series with Hypoaspis aculeifer and in the series with Folsomia candida was 0.207 mg/kg in each case.

`Cc1c(C(=O)O)sc([Si](C)(C)C)c1C(N)=O` [Silthiofam amide acid]: the LC50 in the series on Tagia sp. was over 460 mg/kg; in the series on Oncorhynchus mykiss, over 110 µg/mL. For the same compound, the NOEC in the series on Tagia sp., with Hypoaspis aculeifer and in the series on Folsomia candida was 0.194 mg/kg throughout.

`C=CCNC(=O)c1c([Si](C)(C)C)sc(C)c1C` [Silthiofam]: the NOAEL (commonly the highest dose or exposure tested at which no adverse effect was seen) came out at 20 mg/kg-day with Oryctolagus sp.; 10 mg/kg-day in the series on Canidae (chronic, duration: 1 years, oral); 10 mg/kg-day in the series on Canidae (subchronic, duration: 90 days); 5 mg/kg-day in the series on Rattus norvegicus (chronic, duration: 2 years, M, histopathology: neoplastic). For the same compound, the NOEL is 250 mg/kg-day in the series on Colinus virginianus and 23.5 mg/kg-day with Rattus norvegicus (reproduction developmental, body weight). Also, the LD50 with Coturnix japonica was over 2250 mg/kg-day; with Apis mellifera (dermal), over 100 µg/piece; in the series with Apis mellifera (oral, unspecified) it was over 106 µg/piece; in the series with Rattus norvegicus (acute, oral, mortality) it was over 5000 mg/kg. In addition, the LC50 in the series with Tagia sp. stood at 66.5 mg/kg; in the series on Lepomis macrochirus, 11 µg/mL (≈ 41.1 µM). In addition, the NOEC amounted to 30 mg/kg with Tagia sp., 0.47 mg/L in the series with Daphnia magna, 0.89 mg/L with Pimephales promelas and 1.33 mg/kg in the series with Folsomia candida. The compound further had an LR50 in the series on Typhlodromus pyri of over 40 g/ha.
